Entries after “also recorded” stand apart in the source; their conditions may differ.
Experiments:
human melanocytes = assay: pigment production and differentiation in human melanocytes treated with MSH or afamelanotide (FIG. 9); assay type: cell-based
Description: FIG. 9 is a set of bar graphs illustrating the finding that MSH (the endogenous equivalent of afamelanotide) and afamelanotide (also known as […] or NDP-α-MSH) increase pigment production (top) and differentiation (bottom) in human melanocytes.

[1] = test system: mouse and human melanoma cell lines (B16F10, WM46, WM51, WM3702); assay: proliferation assay of mouse and human melanoma cell lines in vitro; assay type: cell-based; details: estrogen 25 nM E2, G-1 100 nM, vs delivery vehicle
Description: (§1) FIGS. 4A-4F illustrate the finding that GPER signaling slows proliferation and drives differentiation in mouse and human melanoma. FIG. 4A: 5 day proliferation assay of B16F10, WM46 (BRAF^V600E), WM51 (BRAF^V600E), and WM3702 (NRAS^Q61L) cells treated with estrogen (E2), * denotes significance by a two-tailed T-test, n=3 per group. FIG. 4B: 5 day melanin assay of B16F10, WM46 (BRAF^V600E), WM51 (BRAF^V600E), and WM3702 (NRAS^Q61L) cells treated with E2, * denotes significance by a two-tailed T-test, n=3 per group. FIG. 4C: 5 day proliferation assay of B16F10, WM46 (BRAF^V600E), WM51 (BRAF^V600E) and WM3702 (NRAS^Q61L) cells treated with GPER agonist (G-1), * denotes significance by a two-tailed T-test, n=3 per group. FIG. 4D: 5 day melanin assay of B16F10, WM46 (BRAF^V600E), WM51 (BRAF^V600E), and WM3702 (NRAS^Q61L) cells treated with G-1, * denotes significance by a two-tailed T-test, n=3 per group. FIG. 4E: 3 day proliferation assay of B16F10 cells treated with a dose response of G-1, * denotes significance One-way ANOVA with Tukey's multiple comparison test, n=5 per group. FIG. 4F: Western blot of B16F10 cells treated for 16 hours with a saturating dose response of G-1. […]
(§2) Tumor cell proliferation slowed in both mouse and human melanoma cells following treatment with estrogen or G-1, a specific GPER agonist. […] Cell proliferation and differentiation (melanin production) were measured.

[2] = test system: mouse and human melanoma cell lines (B16F10, WM46, WM51, WM3702); assay: melanin assay (differentiation) of mouse and human melanoma cell lines in vitro; assay type: cell-based; details: estrogen 25 nM E2, G-1 100 nM, vs delivery vehicle
Description: as §1, §2

[3] = test system: Mouse (B16) and human (WM46) melanoma cell lines; assay: tumor formation in mice from melanoma cells pretreated in vitro; assay type: in vivo
Method: (§3) FIG. 11A: Long-term melanin assay in which normal human melanocytes were transiently treated with progesterone (P4), or estrogen (E2). Subsets of these groups (Red) were treated with an additional transient pulse of P4 at Day 27. Error bars equal the standard deviation of the samples. FIG. 11B: Western blot of melanocyte differentiation markers after a transient, 4-day treatment with either vehicle or estrogen, followed by an 8 day withdraw period. FIG. 11C: Experimental timeline of estrogen or GPER agonist (G-1) pre-treatment of mouse and human melanoma cells, n=5 per group. FIG. 11D: Relative tumor weights of mouse and human melanomas pre-treated with estrogen, * denotes significance by the Mann-Whitney test. FIG. 11E: Relative tumor weights of mouse and human melanomas pre-treated with G-1, * denotes significance by the Mann-Whitney test.
Mouse (B16) and human (WM46) cell lines were pretreated with estrogen, G-1, or vehicle in vitro for one week then injected in equal numbers in to the left (vehicle-treated) or right (E2-treated) flank of mice, inducing tumor formation (N=5 mice per group) (FIG. 5). 14-16 days later, mice were imaged and tumors were harvested and weighed.
To test whether transient GPER signaling induces a persistent differentiation state in melanoma cells that affects subsequent tumor growth in vivo, melanoma cells were treated with estrogen, G-1, or vehicle in vitro, and subsequently injected equal numbers of treated cells into host mice (FIG. 11C).

normal human melanocytes = assay: differentiation of normal human melanocytes after continuous or transient hormone exposure (melanin, RNAseq, Western blot); assay type: cell-based; details: for melanocyte differentiation state (melanin pigment production) / melanin production after hormone withdrawal: normal human melanocytes; for melanocyte differentiation state (melanin pigment production): hormone or agonist exposure; for melanin production after hormone withdrawal: transient exposure then withdrawal
Method: as §3
Normal human melanocytes received a pulse-treatment of estrogen—this consisted of 4 days of estrogen treatment followed by an 8 day withdraw.
To test whether pregnancy-associated hormones induce long-lasting changes in melanocyte differentiation that may affect their future susceptibility to transformation, primary human melanocytes were transiently exposed to estrogen or progesterone (FIGS. 11A-11E).
A subset of cells differentiated by transient exposure to estrogen was subsequently treated with progesterone.

[4] = test system: histone posttranslational modifications; assay: mass spectrometry of histone posttranslational modifications in estrogen-treated melanocytes; assay type: cell-based, human
Description: FIG. 16B: Western blot of p-RB, c-Myc, and H3K56ac in melanoma cells after treatment with G-1, HDACi, or in combination. FIG. 16C: Proliferation assay of B16F10 melanoma cells after treatment with G-1, HDACi, or in combination.
To begin to identify the epigenetic changes likely underlying stable melanocyte differentiation after GPER activation, mass spectrometry was used to obtain a global analysis of histone posttranslational modifications in estrogen-treated MC.

Compound	differentiation (human melanocytes)	pigment production (human melanocytes)	melanoma cell proliferation [1]	differentiation (melanin production) [2]	inhibition of tumor growth in vivo ([3]; cells pretreated in vitro for one week, injected into flank of mice, tumors weighed 14-16 days later)	tumor growth / tumor size from pretreated cells ([3]; melanoma cells pretreated in vitro, equal numbers injected into mice)	expression of aggressive melanoma markers such as premelanosome protein (PMEL) (normal human melanocytes; 4 days of treatment followed by an 8 day withdraw, RNAseq)	expression of melanocyte differentiation markers (TYR, TRP1, MC1R, MLANA, DCT) (normal human melanocytes; 4 days of treatment followed by an 8 day withdraw, RNAseq, Western blot)	melanocyte differentiation state (melanin pigment production) (normal human melanocytes)	melanocyte differentiation state (melanin pigment production) (normal human melanocytes; listed as Estrogen)	melanin production after hormone withdrawal (normal human melanocytes)	H3K9ac mark [4]	histone acetylation marks regulated by CBP/P300, including H3K122, H3K23, and H3K18 ([4]; 3 independent biologic replicates)
MSH: the endogenous equivalent of afamelanotide (Ac-SYSMEHFRWGKPV-NH2; ends and bridges not checked; UniProt P01189 138-150, looked up)	increase	increase	–	–	–	–	–	–	–	–	–	–	–
C[C@]12CC[C@@H]3c4ccc(O)cc4CC[C@H]3[C@@H]1CC[C@@H]2O [estrogen, estradiol]	–	–	slowed melanoma cell proliferation	drove differentiation	approximately 3 fold	formed significantly smaller tumors; also recorded: markedly reduced subsequent tumor size; also recorded: inhibits melanoma cell line growth in vivo	decreased expression	maintained upregulated expression of all the major melanocyte differentiation markers; also recorded: stable increases in classic melanocyte differentiation antigens	increases melanocyte differentiation state; also recorded: increase the differentiation state of human melanocytes	make more pigment; also recorded: increased melanin production	stably produced more melanin	decreased	significant increases
CC(=O)[C@H]1CC[C@H]2[C@@H]3CCC4=CC(=O)CC[C@]4(C)[C@H]3CC[C@]12C [progesterone]	–	–	–	–	–	–	–	–	had opposite effects	–	quickly returned to their baseline level of melanin production	–	–

Source: patent US11369618B2, “Compounds, compositions and methods for prevention and/or treatment of cancer” (THE TRUSTEES OF THE UNIVERSITY OF PENNSYLVANIA, priority 2016, dated 2022)
